Data from patent publication US20110281917A1, “Substituted Benzimidazoles for the Treatment of Astrocytomas” (priority 2009, published 2011).

Assays:
phospho-MEK = phospho-MEK ELISA in ST88 cells; assay type: cell-based
Description: (§1) Pathway inhibition and anti-proliferative activity of RAF265 in ST88 cells.

phospho-ERK = phospho-ERK ELISA in ST88 cells; assay type: cell-based
Description: as §1

ST88 cells = test: Proliferation of ST88 cells; assay type: cell-based
Description: as §1

[1] = tested on: VEGF-CHO cells induced angiogenesis; test: Matrigel plug angiogenesis model with VEGF-CHO cells, hemoglobin by Drabkin's reagent; assay type: in vivo; conditions: mice, dosed days 1 and 4, plugs excised day 5
Description: Due to the inhibition of VEGFR-2, RAF265 also has anti-angiogenic activity which may also provide a therapeutic benefit in treating neurofibromas. To confirm that RAF265 inhibits the growth of new blood vessels (i.e., angiogenesis) in vivo, mice were implanted with Matrigel® containing Chinese hamster ovary cells (CHO) overexpressing VEGF and then treated mice with a dose range of RAF265 or a vehicle control (days 1 and 4). In this model, VEGF expressed from the CHO cells induces angiogenesis within the Matrigel® plug. Plugs are excised on day 5 and assayed for hemoglobin using Drabkin's reagent, as a measure of the degree of angiogenesis.

Q: What does the source list for `Cn1c(Nc2ccc(C(F)(F)F)cc2)nc2cc(Oc3ccnc(-c4ncc(C(F)(F)F)[nH]4)c3)ccc21` [Compound of Example 1]?
A: EC50 (phospho-MEK): 150 nM; EC50 (phospho-ERK): 185 nM; EC50 (ST88 cells): 207 nM; dose of maximal suppression of hemoglobin content [1]: 50 mg/kg; hemoglobin content of Matrigel plug [1]: dose-dependent decrease in hemoglobin content
